Data reported in publication PMC7645381, “Development and application of a high-throughput screening assay for identification of small molecule inhibitors of the P. falciparum reticulocyte binding-like homologue 5 protein” (International Journal for Parasitology: Drugs and Drug …, 2020).

Columns and labels:
[1] = biological target: T1, P. falciparum Rh5 (Rh5 – basigin interaction) (Plasmodium falciparum, UniProt Q8IFM5); experiment: biochemical; design: AlphaScreen of Rh5 - His-tagged basigin interaction with anti-Rh5 mAb beads; inhibition of luminescence signal; details: Batch Reference=01; confirmation screen, duplicate
Procedure: Using the Combi-multidrop, 5 μL of Rh5 stock solution (200 nM prepared in assay buffer) was added to columns 1–24 of the 384-well assay plate (Greiner 384-well white, low binding plate, #784904, Bioone). The PerkinElmer Janus automated dispensing system was then employed to transfer, via the pin-tool, 2 × 100 nL of the compound stock DMSO solution from the compound master plate to the assay plate. The plate was sealed and incubated for 30 min at room temperature. Using a Combi-multidrop, 5 μL of hexa-histidine tagged basigin stock solution (80 nM prepared in assay buffer) was then added to columns 1–23 and 5 μL assay buffer to column 24 of the 384-well assay plate. The plate was sealed again and incubated for 30 min at room temperature. A solution of AlphaScreen donor and acceptor beads (20 μg/mL prepared in assay buffer) plus anti-Rh5 mAb solution (2 μg/mL prepared in assay buffer) was prepared in assay buffer under subdued lighting. Using the Combi-multidrop, 10 μL of this solution was added to every well of the assay plate under subdued lighting. The plate was sealed with foil (plate max) and incubated at room temperature for 1 h. The assay plate was then analysed on the PerkinElmer Envision 2103 Multilabel Plate Reader (Ex 680, Em 520–620 nm). […] Historically, PPIs are notoriously difficult to target with small molecules. To enhance the likelihood of identifying an inhibitor of the Rh5 - basigin interaction the primary screen was conducted at a compound concentration of 20 μM. A 20 μM screening concentration is considered high, when compared to the commonly used primary screen concentrations of approximately 1–10 μM. […] To do this, a two-phase hit confirmation and counterscreen process was undertaken (Fig. 1). […] Both assays were undertaken at 10 μM in duplicate. The counterscreen assay was conducted using AlphaScreen TruHits.

[2] = biological target: T1, P. falciparum Rh5 (Rh5 – basigin interaction); experiment: biochemical; type: binding

T1 sequence (Q8IFM5 24-526): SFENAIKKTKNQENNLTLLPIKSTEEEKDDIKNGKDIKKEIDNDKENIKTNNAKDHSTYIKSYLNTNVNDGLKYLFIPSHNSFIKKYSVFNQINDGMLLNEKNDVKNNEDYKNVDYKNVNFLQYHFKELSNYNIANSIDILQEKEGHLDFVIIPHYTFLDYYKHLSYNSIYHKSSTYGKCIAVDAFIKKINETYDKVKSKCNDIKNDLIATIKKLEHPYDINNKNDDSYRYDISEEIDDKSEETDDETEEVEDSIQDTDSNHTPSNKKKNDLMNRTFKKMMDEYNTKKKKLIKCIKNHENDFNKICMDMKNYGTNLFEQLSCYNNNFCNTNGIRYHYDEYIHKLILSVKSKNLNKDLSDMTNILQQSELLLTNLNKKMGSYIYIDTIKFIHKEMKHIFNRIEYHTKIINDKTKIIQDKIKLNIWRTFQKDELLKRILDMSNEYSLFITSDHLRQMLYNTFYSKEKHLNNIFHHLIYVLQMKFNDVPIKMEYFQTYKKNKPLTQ

## O=C(Nc1cccc2c(=O)cc(-c3nnn[nH]3)oc12)c1ccc(OCCCCc2ccccc2)cc1 [pranlukast]
[1]
  inhibition at 10 µM: 69%
[2]
  IC50: 12 µM
